Experimental data: PMC7663597, “Structure–Activity Relationship of Aloperine Derivatives as New Anti–Liver Fibrogenic Agents” (Molecules, 2020)

Assays:
[1] = test system: COL1A1 promotor; assay: COL1A1 promotor luciferase reporter gene assay in TGF-β1-treated LX-2 cells; type: cell-based, human; conditions: Homo sapiens; for inhibition at 40 µM / inhibition at 80 µM: LX-2, 24 h; for inhibition at 40 µM: 24 h with TGF-β1, read-out: Inhibition Percentage 40 μM (inhibition rate of COL1A1 promotor's activity); for inhibition at 80 µM: 24 h with TGF-β1, read-out: Inhibition Percentage 80 μM (inhibition rate of COL1A1 promotor's activity); for IC50: read-out: IC50 (concentration required to inhibit 50% of COL1A1 promotor's activity)
Procedure: A single luciferase reporter gene detection model was applied to evaluate the inhibitory effects of all target compounds on the expression of COL1A1 promotor in human hepatic stellate LX-2 cells at the concentrations of 40 and 80 μM, taking EGCG as the positive control. The LX-2 cell lines were transfected with COL1A1 promotor luciferase plasmid pGL4.17-COL1A1P for 24 h, then simultaneously treated with TGF-β1 and a tested compound for 24 h.
(§1) Cells were maintained on Dulbecco’s Modified Eagle’s medium (DMEM), laid on 96-well plate. DMEM medium was supplemented with 10% fetal bovine serum (FBS) at 37 °C humidified atmosphere with 5% CO2. Furthermore, serum-free culture was required until the cells were confluent at 90−95%. 24 h later the cells were treated with a tested compound (40 and 80 μM) for 24 h. The COL1A1 promotor activity was detected by the Bright-Glo luciferase assay system. Alternatively, to test the acute effects of compound on luciferase activity, 24 h later the cells were lysed and the lysate was treated with a tested compound (80 μM) for 2 h, then the luciferase was detected by the Bright-Glo luciferase assay system (Promega, Madison, WI, USA).

[2] = molecular target: T1, luciferase (Photinus pyralis, UniProt P08659, K549A/L550V/N119G/N50D/S548I); assay: Acute effect on luciferase activity (cell lysate, 2 h); type: biochemical; conditions: 80 μM, 2-h treatment
T1 construct: expressed in transfected cells; host or cells: human hepatic stellate LX-2 cells transfected with pGL4.17-COL1A1P; lysate used
Procedure: Then, their anti-COL1A1 potencies were verified by testing the half maximal inhibition concentration (IC50) values upon COL1A1 expression expression in LX-2 cells. […] Then, compounds 4i, 4n and 4p with the lower IC50 values were selected as the key compounds for further studies.
as §1

[3] = LX-2 cell survival, sulforhodamine B (SRB) assay; type: cell-based; conditions: human, LX-2 cells
Procedure: LX-2 cell survival was measured by sulforhodamine B (SRB) assay. The cells were seeded in 96-well plates at the density of 2 × 10^4/well and cultured in DMEM/GlutaMAX I medium with 10% fetal bovine serum (FBS) with 5% CO2, 37 °C. The cells were treated by the aloperine derivates for 24 h, washed by PBS for three times. Then the cells were fixed with 10% (wt/vol) trichloroacetic acid for 1 h and stained with SRB for 0.5 h. Subsequently, the protein-bound dye was dissolved in 10 mM Tris base solution after removing excess SRB dye washing repeatedly with 1% (vol/vol) acetic acid, the optical density (OD) was determined at 510 nm with a microplate reader.

[4] = HepG2 cell survival, MTT assay; type: cell-based; conditions: human, HepG2 cells
Procedure: HepG2 cell survival was measured by MTT assay. HepG2 cells, at density of 6x10^3 cells/well in 96-well culture plates, were incubated with the aloperine derivates at various concentrations until the cells at 50% confluence for 24 h. 20 µL of the MTT (5 mg/mL) solution was added to each plate and incubated with 5% CO2, 37 °C for 4 h. Subsequently, withdrawing the culture supernatant containing MTT, 150 µL DMSO was used for dissolving the formazan crystal. The absorbance was measured using a microplate reader at 570 nm.

[5] = test system: COL1A1 mRNA; assay: RT-PCR of COL1A1 mRNA in LX-2 cells; type: cell-based, human; conditions: 24 h
Procedure: (§2) In the absence or presence of TGF-β1 (2 ng/mL) treatment, LX-2 cells were treated with key compounds 4n and 4p at concentrations of 6 μM and 12 μM, or 4i at a concentration of 12 μM, respectively.
LX-2 cells were laid on 6-well plate and cultured in DMEM supplemented with 10% fetal bovine serum (FBS) in a 5% CO2 atmosphere at 37 °C. And serum-free culture was required until the cells reached 90−95% confluence. […] Total RNA of the LX-2 cells was isolated using TRIzol reagent, purified using NucleoSpin RNA Clean-up. Reverse transcription was performed with Transcriptor first strand cDNA synthesis kit. Subsequently, the cDNA levels was determined by ABI 7500 Fast Real-Time PCR System using TaqMan probes of COL1A1, TGF-β1, α-SMA, and GAPDH (sequence not disclosed by ABI) and FastStart Universal Probe master mix (Roche, Indianapolis, IN, USA).

[6] = test system: TGFB1 mRNA; assay: RT-PCR of TGFB1 mRNA in LX-2 cells; type: cell-based, human; conditions: TGF-β1 (2 ng/mL) stimulation, 12 μM, 24 h
Procedure: as §2
Since the stimulation of TGF-β1 provokes the expression of a series of fibrosis genes, for example COL1A1 and TGFB1 [24, 25], the effects of key compounds on TGF-β1 expression were evaluated by RT-PCR and western blot assays. As shown in Figure 2B and Supplementary Table S1, the expression of TGFB1 mRNA was maintained at a low level, and the addition of a key compound seemed to have little effect on its expression.
LX-2 cells were laid on 6-well plate and cultured in DMEM supplemented with 10% fetal bovine serum (FBS) in a 5% CO2 atmosphere at 37 °C. And serum-free culture was required until the cells reached 90−95% confluence. After 24 h, cells were incubated with […] concentrations of aloperine derivatives in the presence of 2 ng/mL of TGF-β1 for 24 h. Total RNA of the LX-2 cells was isolated using TRIzol reagent, purified using NucleoSpin RNA Clean-up. Reverse transcription was performed with Transcriptor first strand cDNA synthesis kit. Subsequently, the cDNA levels was determined by ABI 7500 Fast Real-Time PCR System using TaqMan probes of COL1A1, TGF-β1, α-SMA, and GAPDH (sequence not disclosed by ABI) and FastStart Universal Probe master mix (Roche, Indianapolis, IN, USA).

[7] = in vivo; conditions: both sexes, Kunming, mouse, po
Procedure: To evaluate the safety profiles of the key compounds 4i, 4n and 4p, an acute toxicity test was performed in Kunming mice. Compound 4i was given orally in a single-dosing experiment at 100, 300 and 400 mg kg^−1, while 4n at 300, 400, 500 mg kg^−1, and 4p at 200, 400, 500 mg kg^−1. The mice were closely monitored for 7 days.
Male and Female Kunming mice with weight of 20.0 ±1.0 g were obtained from the Institute of Laboratory Animal Science (Beijing, China). Animals wer e cared according to the institutional guidelines of the Institute of Medicinal Biotechnology, CAMS&PUMC (IMB-20190610D3), and fed with regular rodent chow and housed in an air conditioned room. The mice were randomly divided into different groups with four male mice and four female mice each. Each compound was given orally in a single-dosing experiment, the dose of 4i was 100, 300 and 400 mg kg^−1, the dose of 4n was 300, 400, 500 mg kg^−1, the dose of 4p was 200, 400, 500 mg kg^−1 (ddH2O as control). The mice were closely monitored for 7 days. Body weight as well as survival was monitored.

T1 sequence (P08659 whole entry N50D/N119G/S548I/K549A/L550V): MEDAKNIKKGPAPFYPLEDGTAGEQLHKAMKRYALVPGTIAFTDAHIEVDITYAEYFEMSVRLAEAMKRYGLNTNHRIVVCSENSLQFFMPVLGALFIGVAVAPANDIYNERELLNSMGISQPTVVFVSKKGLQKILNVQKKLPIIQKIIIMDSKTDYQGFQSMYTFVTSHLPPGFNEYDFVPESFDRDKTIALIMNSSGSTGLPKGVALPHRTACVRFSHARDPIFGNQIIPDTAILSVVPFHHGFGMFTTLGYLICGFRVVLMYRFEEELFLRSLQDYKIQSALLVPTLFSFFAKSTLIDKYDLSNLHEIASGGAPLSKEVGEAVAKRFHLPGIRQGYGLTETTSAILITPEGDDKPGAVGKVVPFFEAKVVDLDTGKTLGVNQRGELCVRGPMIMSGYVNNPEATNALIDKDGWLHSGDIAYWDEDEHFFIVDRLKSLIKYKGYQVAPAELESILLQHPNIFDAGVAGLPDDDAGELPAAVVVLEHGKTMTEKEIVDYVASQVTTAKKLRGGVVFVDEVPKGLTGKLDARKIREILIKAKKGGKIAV

O=C(CN1CCCC2=C[C@H]3C[C@H](CN4CCCC[C@H]34)[C@@H]21)Nc1cc(Cl)cc(OC(F)(F)F)c1 [4i, 12N-N′-(3-Chloro-5-trifluoromethoxyphenyl)carbamoylmethyl aloperine]
inhibition at 40 µM [1]: 99.9% | inhibition at 80 µM [1]: 99.9% | IC50 [1]: 8.4 ± 0.3 µM | Acute effect on luciferase activity [2]: minimal inhibition | CC50 at 24 h [3]: 19.5 ± 1.8 µM | CC50 at 24 h [4]: 22 ± 4.6 µM | Inhibitory rate of COL1A1 transcription (mRNA) ([5]; TGF-β1 (2 ng/mL) stimulation, 12 μM): 97.4% | Inhibitory rate of COL1A1 transcription (mRNA) ([5]; absence of TGF-β1, 12 μM): 45% | Inhibitory rate of TGFB1 mRNA expression [6]: 75.4% | LD50 at 7 days [7]: 100 mg/kg

O=C(CNS(=O)(=O)c1cc(C(F)(F)F)cc(C(F)(F)F)c1)N1CCCC2=C[C@H]3C[C@H](CN4CCCC[C@H]34)[C@@H]21 [10g, 12N-N′-(3,5-Ditrifluoromethyl)benzenesulfonylaminoacetyl aloperine]
inhibition at 40 µM [1]: 48.4 ± 24.7% | inhibition at 80 µM [1]: 84 ± 0.5% | IC50 [1]: 27.6 ± 3 µM | Acute effect on luciferase activity [2]: minimal inhibition | CC50 at 24 h [3]: 68.6 ± 11.7 µM | CC50 at 24 h [4]: 113 ± 3.4 µM | melting point: 78 to 80 °C
